Read-outs that look alike come from different tables or passages of the source.
Columns and labels:
[1] = system: Drosophila melanogaster flies of the Oregon wild-type strain; experiment: Adult fly mortality screen, wild-type flies; type: in vivo; conditions: 100 ppm in 10% sucrose via cotton wick, 72 hours post-treatment
Description: (§1) Ten adult Drosophila melanogaster flies (5 males and 5 females) of the Oregon wild-type strain and ten adult flies of a spinosyn-resistant strain were used per treatment. Two sets (of 10 flies) were set-up per treatment. Stocks of spinosyn A and a 21-butenyl-spinosyn analog were formulated at 1000 ppm in 2:1 acetone:water and then diluted to the required concentration in 10% sucrose. Vials received 500 ul of treatment (or solvent for controls) via cotton wicks (approximately ¼ inch) and flies were added to each vial and capped with a cotton plug. Flies were monitored over 72 hours post-treatment while being maintained at room-temperature with a 12:12 light:dark cycle.
(§2) In addition, the spinosyn A resistant flies were >100-fold resistant (based on LD50) to the new class of spinosyns, represented by the 21-butenyl spinosyns.

[2] = system: Drosophila melanogaster flies of a spinosyn-resistant strain; experiment: Adult fly mortality screen, spinosyn-resistant flies; type: in vivo; conditions: for mortality: 100 ppm in 10% sucrose via cotton wick, 72 hours post-treatment, spinosyn-resistant flies; for resistance of spinosyn A resistant flies compared to wild-type flies (based on LD50): dose-response data, resistant vs wild-type flies
Description: as §1, §2

[3] = system: Dα6 and C. elegans ric3 expressed in D.Mel-2 cells; experiment: [3H]DHSA radioligand displacement binding in D.Mel-2 cells; parameters: species or system Drosophila melanogaster
Description: D.Mel-2 cells were seeded into 75 cm^2 flasks at 1.9×10^7 cells/flask in Drosophila SFM containing antibiotic/antimicotic and incubated overnight at 27° C. The transfection mix was prepared in 12×75 mm polystyrene tubes by mixing 1630 μl sterile water, 40 μg pIB/V5-HisA/ric3, 40 μg pIB/V5-HisA/30D and 250 μl CellFectin. The reagents were mixed gently and incubated at room temp for 15 minutes. While the transfection mix was incubating, the cells were washed with 10 ml fresh Drosophila SFM without antibiotics; this media was then removed from the cells and replaced with 6 ml fresh Drosophila SFM without antibiotics. To the transfection mix was added 4 ml Drosophila SFM without antibiotics and this was then transferred to the flask. The reagents were gently mixed by pipetting up and down and then incubated overnight at 27° C.
D.Mel-2 cells were purchased from Invitrogen (Carlsbad, Calif.) and grown in disposable 125 ml shake flasks using 50 ml volume. Cells were subcultured to 3×10^5 cells/ml twice per week in Drosophila SFM containing 5 ml/L Antibiotic-Antimycotic (100×) (Gibco, Carlsbad, Calif.). D.Mel-2 cells were seeded into a 12-well plate at a cell density of 5×10^5 cells/well and incubated overnight at 27° C. In a 12×75 mm polystyrene tube 6 μg pIB/V5-HisA/ric3, 82 μl sterile H2O and 12 μl CellFectin (Invitrogen, Carlsbad, Calif.) were added. The sample was mixed gently and incubated at room temperature for 15 minutes. While the transfection mix was incubating, media from one well of cells was removed and replaced with 1 ml fresh media without antibiotics. After 15 minutes, the media was removed from cells. To this transfection mix, 0.5 ml media (no antibiotics) was added. This solution was then added to the cells. The mixture was incubated for 48 hrs at 27° C. After 48 hrs, the cells were scraped from the plate using a cell scraper and split into 4 wells of a 6-well plate each containing 2 ml Drosophila SFM with antibiotics. Cells were allowed to attach for 1 hr at 27° C.; the media was removed and replaced with 2 ml fresh media containing 25 μg/ml Blasticidin S (Invitrogen, Carlsbad, Calif.). Cells were incubated at 27° C. for 5 days. After 5 days, the cells were scraped loose from the wells and combined into one tube. Cells were spun down at 600 rpm in a tabletop centrifuge; the media was removed and the cells were resuspended into a 50 ml shake culture in fresh Drosophila SFM containing 25 μg/ml Blasticidin S. The cells were incubated at 27° C./140 rpm. Cells were subcultured twice weekly back to cell density of 3×10^5 cells/ml. After 4 weeks the selection was cut back to 10 μg/ml Blasticidin S. After 3 months of growth under selection, a 12 well plate was seeded at 5×10^5 cells/well and cells were incubated over night at 27° C. The following reagents were added to each of three 12×75 mm polystyrene tubes: 2 μg pMT/V5-HisA/30D, 0.15 μg pCoHygro (Invitrogen, Carlsbad, Calif.) (a […] ratio of expression plasmid:selection plasmid), 89 μl sterile H2O and 12 μl CellFectin. The samples were mixed gently and incubated at room temp for 15 minutes and then transfected as described above. After 24 hrs, the media containing transfection mix was removed and replaced with 1 ml fresh media containing antibiotics. The incubation was continued at 27° C. for another 24 hrs. Cells were scraped loose from the 12-well plate (3 wells) and split into 2, 6-well plates. Cells were allowed to attach for 6 hours at which point, the media was replaced with 2 ml/well fresh media containing 200, 150, 100 or 50 μg/ml hygromycin B. The incubation was continued at 27° C.; every 4-5 days, the media was replaced with media containing hygromycin every 4-5 days. After 2 weeks of selection in the plates, the cells from the 200 μg/ml selection, were scraped loose and then gently pelleted and resuspended in 25 ml fresh media containing 200 μg/ml hygromycin B and then placed into a 125 ml shake flask.

Dα6-nicotinic receptor = type: binding, Drosophila melanogaster
Description: Xenopus oocytes were injected as previously described for the electrophysiological assay and were used intact for binding assays.
Two main radioligands were used in binding assays: the conventional α7 radioligand, [^3H]methyllycaconitine (MLA) and [^3H]dihydrospinosyn A (DHSA). For both radioligands, the Binding Buffer used consisted of 10 mM sodium phosphate (7.2-7.4). […] For Xenopus oocyte binding assays, oocytes were pooled (2-5 oocytes) and transferred to 1 ml Binding Buffer. This was followed by gently aspirating the Binding Buffer and replacing with fresh Binding Buffer twice, to wash out any residual oocyte bathing media. The final volume of buffer added to each pool of oocytes was 50-100 μl. […] Subsequent dilutions were made in Binding Buffer. The final concentration of solvent was maintained at less than 0.1% in each well. 25 μl of unlabeled competing compounds were added to the cell suspensions or oocytes. Cells or cell extracts were pre-incubated with compounds for 15-30 minutes, at 10° C. (for [^3H]DHSA) and room-temperature for [^3H]MLA. The samples were gently shaken using a plate shaker. […] Filter mats were dried in an oven at 60° C. and the radioactivity from samples was counted for three minutes with a Wallac MicroBeta Counter (Wallac, Conn.) using Meltilex solid-scintillant (PerkinElmer, Finland). […]

30D/ric-3 = type: cell-based, Drosophila melanogaster; conditions: −60 mV, peak current
Description: (§3) Xenopus laevis (Xenopus 1, Ann Arbor, Mich.; Nasco, Fort Atkinson, Wis.) were anesthetized by bathing in a solution of 2 g/l tricaine methane sulfonate, and oocytes were surgically removed from the frog and placed in a culture solution that consisted of 96 mM NaCl, 2 mM KCl, 1.8 mM CaCl2, 1 mM MgCl2, 5 mM HEPES, 2.5 mM Na-pyruvate, 100 units/ml penicillin, and 0.1 mg/ml streptomycin, pH 7.6. Oocytes were dispersed in a nominally zero Ca^2+ protease treatment solution to defolliculate the oocytes. The protease treatment solution consisted of either 88 mM NaCl, 2.5 mM KCl, 1 mM MgCl2, 5 mM HEPES, 2.5 mM Na-pyruvate, 100 units/ml penicillin, and 0.1 mg/ml streptomycin, pH 7.6 plus 1.5 mg/ml collagenase IA (Sigma Chemical Co., St. Louis, Mo.). After isolation, the oocytes were thoroughly rinsed and returned to the above Ca^2+ containing culture solution and stored at 18° C.
(§4) Synthesis of cRNA was performed as follows: Plasmid DNA was linearized with one of the following restriction enzymes; Not I, Xho I or Nhe I. The linearized DNA was subsequently used as template for cRNA synthesis using T7 mMessage mMachine kit (Ambion, Austin, Tex.) following the manufacturer's instructions.
(§5) Micropipettes for injection of cRNA into Xenopus oocytes were pulled on a DMZ-Universal Puller (Zeitz-Instruments, München, Germany). The cRNA to be injected was drawn up into the micropipette with negative pressure. Approximately 10-50 ng of cRNA was injected into the oocytes by applying positive pressure using a Nanoject II oocyte injector (Drummond Scientific Co., Broomall, Pa.). Nucleic acid was introduced into the oocytes as follows: (1) nicotinic acetylcholine receptor alpha-6 subunit subunit (30D) (2) nicotinic alpha-7 receptor subunit (34E); (3) nicotinic acetylcholine receptor alpha-6 subunit and C. elegans ric-3 (30D and ric-3); (4) nicotinic alpha-7 receptor subunit and C. elegans ric-3 (34E and ric-3); (5) nicotinic acetylcholine receptor alpha-6 subunit and nicotinic alpha-7 receptor subunit (30D and 34E); and, (6) nicotinic acetylcholine receptor alpha-6 subunit, nicotinic alpha-7 receptor subunit and C. elegans ric-3 (30D, 34E and ric-3).
(§6) The control external solution for voltage clamp recordings consisted of 88 mM NaCl, 1 mM KCl, 0.41 mM CaCl2, 2.4 mM NaHCO3, 0.3 mM Ca(NO3)2, 0.82 mM MgSO4·7 H2O, and 15 mM HEPES, pH 7.6. The recording chamber was continuously perfused with a gravity-fed perfusion system. Nicotine (1 mM) was added to the external solution and then added to the perfusate for 30 seconds. Then, nicotine was washed from the external solution a minimum of 10 minutes. Thereafter, spinosyn A was dissolved in dimethylsulfoxide (DMSO) and then dissolved in the external solution at a final concentration of 10 μM and then added to the perfusate for 60 seconds. Then, the spinosyn A was washed from the external solution. The final concentration of DMSO never exceeded 0.1% (v/v).

[4] = system: 34E (nicotinic acetylcholine receptor alpha-5 subunit); type: cell-based, Drosophila melanogaster; note: key: '−' indicates a negligible current was induced; '+' indicates a small amplitude current; '++' indicates a moderate amplitude current; '++++' indicates a large amplitude current
Description: as §3, §4, §5, §6

34E/ric-3 = type: cell-based, Drosophila melanogaster; note: key: '−' indicates a negligible current was induced; '+' indicates a small amplitude current; '++' indicates a moderate amplitude current; '++++' indicates a large amplitude current
Description: as §3, §4, §5, §6

[5] = system: 30D (nicotinic acetylcholine receptor alpha-6 subunit); type: cell-based, Drosophila melanogaster; note: key: '−' indicates a negligible current was induced; '+' indicates a small amplitude current; '++' indicates a moderate amplitude current; '++++' indicates a large amplitude current
Description: as §3, §4, §5, §6

34E/30D/ric-3 = type: cell-based, Drosophila melanogaster; parameters: key to the marks not given beside the values; conditions: −60 mV, peak current; for Spinosyn A Response: key: '−' indicates a negligible current was induced; '+' indicates a small amplitude current; '++' indicates a moderate amplitude current; '++++' indicates a large amplitude current
Description: as §3, §4, §5
as §6, with “Then, the spinosyn A was washed from the external solution. The final concentration of DMSO never exceeded 0.1% (v/v).” left out

34E/30D = type: cell-based, Drosophila melanogaster; parameters: key to the marks not given beside the values; conditions: −60 mV, peak current
Description: as §3, §4, §5
as §6, with “Then, the spinosyn A was washed from the external solution. The final concentration of DMSO never exceeded 0.1% (v/v).” left out

[6] = D.Mel-2 cells expressing Dα6 and C. elegans ric3
[7] = spinosyn A 10 μM for 60 seconds

21-butenyl spinosyn
mortality [1]: all wild-type flies exhibited mortality | mortality [2]: no significant mortality | resistance of spinosyn A resistant flies compared to wild-type flies (based on LD50) [2]: > 100 fold

CCN1C[C@]2(COC(=O)c3ccccc3N3C(=O)C[C@H](C)C3=O)CC[C@H](OC)[C@@]34[C@@H]5C[C@H]6[C@H](OC)[C@@H]5[C@](O)(C[C@@H]6OC)[C@@](O)([C@@H](OC)[C@H]23)[C@@H]14 [MLA, methyllycaconitine]
displacement of [3H]DHSA binding [3, 6]: can be demonstrated at higher concentrations | overall affinity for this receptor complex ([3]; [3H]DHSA binding assay, D.Mel-2 cells): relatively poor

CN1CCCC1c1cccnc1 (stereo not shown) [Nicotine, nicotine]
% Displacement of Total Binding (Dα6-nicotinic receptor): 72% | Nicotine Response (30D/ric-3; nicotine 1 mM for 30 seconds): + | Nicotine Response [4]: + | Nicotine Response (34E/ric-3): + | Nicotine Response [5]: − | displacement of [3H]DHSA binding [3, 6]: displacement | Nicotine Response (34E/30D/ric-3; nicotine 1 mM for 30 seconds): ++++ | Nicotine Response (34E/30D; nicotine 1 mM for 30 seconds): ++

CC[C@H]1CCC[C@H](O[C@H]2CC[C@H](N(C)C)[C@@H](C)O2)[C@@H](C)C(=O)C2=C[C@@H]3[C@@H](C=C[C@@H]4C[C@@H](O[C@@H]5O[C@@H](C)[C@H](OC)[C@@H](OC)[C@H]5OC)C[C@@H]34)[C@@H]2CC(=O)O1 [Spinosyn A, spinosyn A]
% Displacement of Total Binding (Dα6-nicotinic receptor; 10 μM, [3H]MLA, intact Xenopus oocytes 3 days post-injection with Dmα6): 72% | Spinosyn A Response (30D/ric-3; [7]): + | Spinosyn A Response ([4]; spinosyn A 10 μM for 60 seconds, −60 mV, peak current, 34E): − | Spinosyn A Response (34E/ric-3; spinosyn A 10 μM for 60 seconds, −60 mV, peak current, 34E/ric-3): − | Spinosyn A Response ([5]; spinosyn A 10 μM for 60 seconds, oocytes clamped to −60 mV, peak current, 30D): − | mortality [1]: all wild-type flies exhibited mortality | mortality [2]: no significant mortality | resistance of spinosyn A resistant flies compared to wild-type flies (based on LD50) [2]: at least 100 fold | displacement of [3H]DHSA binding [3, 6]: significant displacement | Spinosyn A Response (34E/30D/ric-3; [7]): ++++ | Spinosyn A Response (34E/30D; [7]): ++

CN1[C@@H]2CC[C@H]1C[C@@H](OC(=O)C(CO)c1ccccc1)C2 (stereo partly shown) [atropine]
displacement of [3H]DHSA binding [3]: not

C[N+](C)(C)CCOC(N)=O.[Cl-] [carbamylcholine]
displacement of [3H]DHSA binding [3, 6]: did not significantly displace

CC[C@H]1CCC[C@H](O[C@H]2CC[C@H](N(C)C)[C@@H](C)O2)[C@@H](C)C(=O)C2=C[C@H]3[C@@H]4C[C@H](O[C@@H]5O[C@@H](C)[C@H](OC)[C@@H](OC)[C@H]5OC)C[C@H]4CC[C@H]3[C@@H]2CC(=O)O1 [dihydrospinosyn A]
displacement of [3H]DHSA binding [3, 6]: significant displacement

Clc1ccc(C2CC3CCC2N3)cn1 (stereo not shown) [epibatidine]
displacement of [3H]DHSA binding [3, 6]: did not significantly displace

NS(=O)(=O)c1cc(C(=O)O)c(NCc2ccco2)cc1Cl [furosemide]
displacement of [3H]DHSA binding [3, 6]: No significant displacement

O=[N+]([O-])NC1=NCCN1Cc1ccc(Cl)nc1 [imidacloprid]
displacement of [3H]DHSA binding [3, 6]: did not significantly displace

CN1[C@@H](CC(=O)c2ccccc2)CCC[C@H]1C[C@H](O)c1ccccc1 [lobeline]
displacement of [3H]DHSA binding [3, 6]: did not significantly displace

C[C@@H]1O[C@H](C[N+](C)(C)C)C[C@H]1O [muscarine]
displacement of [3H]DHSA binding [3, 6]: not

CC[C@H]1CCC[C@H](O)[C@@H](C)C(=O)C2=C[C@@H]3[C@@H](C=C[C@@H]4C[C@@H](O[C@@H]5O[C@@H](C)[C@H](OC)[C@@H](OC)[C@H]5OC)C[C@@H]34)[C@@H]2CC(=O)O1 [pseudoagylcone of spinosyn A]
displacement of [3H]DHSA binding [3, 6]: Nor was there significant displacement

C[C@H](O)[C@H](O)[C@@H](O)[C@@H](O)C=O [rhamnose]
displacement of [3H]DHSA binding [3, 6]: No significant displacement

CN1COCN(Cc2cnc(Cl)s2)/C1=N\[N+](=O)[O-] [thiamethoxam]
displacement of [3H]DHSA binding [3, 6]: did not significantly displace

alpha-bungarotoxin
displacement of [3H]DHSA binding [3]: can be demonstrated at higher concentrations | overall affinity for this receptor complex [3]: relatively poor

— US20060269995A1, “Novel assays utilizing nicotinic acetylcholine receptor subunits” (priority 2005, published 2006)
